Source: US9198892B2, “Composition and/or method for preventing onset and/or recurrence of cardiovascular events” (MOCHIDA PHARMACEUTICAL CO., LTD., priority 2005, dated 2015)

Tests used:
[1] = Serum lipid concentration in the five-year EPA-E trial; format: in vivo, human
Procedure: (§1) The observation was conducted by a large scale randomized unblinded controlled trial of the EPA-E group (9,326 cases) and the control group (9,319 cases). The patients were randomized into the groups at the beginning of the trial so that no significant difference is found between the groups in the background factors of the patients, namely, age, sex ratio, history and complication, type and proportion of the HMG-CoA RI, serum lipid concentration, and the like. The patients of both groups were under nutritional counseling, and HMG-CoA RI was administered to them as a base drug.
(§2) Epadel (Mochida Pharmaceutical Co., Ltd.) was orally administered as EPA-E typically at an adult dose of 600 mg after the meal three times a day. In the case of abnormal serum TG, however, the dose could be increased to 900 mg per administration and three times a day.
(§3) Pravastatin sodium (Mevalotin tablets and fine granules, Sankyo Co., Ltd.), simvastatin (Lipovas tablets, Banyu Pharmaceutical Co., Ltd.), or atorvastatin calcium hydrate (Lipitor tablets, Astellas Pharma Inc. and Pfizer) was used for the HMG-CoA RI, and these drugs were orally administered according to the predetermined dosage regimen.
For five years from before the start of the trial to the end of the trial, the concentration of the serum lipid (T-Cho, HDL-Cho, and TG) was periodically measured, and LDL-Cho was calculated by the equation of T-Cho-HDL-Cho-(TG/5). In addition, onset of cardiovascular events (cardiovascular death (fatal myocardial infarction and sudden cardiac death), nonfatal myocardial infarction, cardiovascular angioplasty, new onset of rest angina or effort angina, and destabilization of angina pectoris (hospitalization and cardiovascular angioplasty)) was observed.

[2] = oral 600 mg three times a day immediately after meals (up to 900 mg when serum TG is abnormal); cited from earlier work
[3] = Five-year large scale randomized unblinded controlled trial of EPA-E: onset of cardiovascular events; format: in vivo, human; conditions: five years; for incidence rate of the cardiovascular events / Cases with the cardiovascular events/all cases: EPA-E group
Procedure: as §1
The data was collected from […] participant patients by about 4,900 participant physicians in about 2,900 participant facilities with sufficient case number, randomization, and the strictness required for the controlled trial. For example, in choosing the participant patients, the serum T-Cho concentration was measured twice at an interval of two to four weeks except for the cases where the patients underwent an adequate nutritional consulting with high compliance and the cases where the fasting blood was collected after cessation of the antilipidemic drug, in which the measurement was conducted only once. While untreated patients were preferable, in the case of patients who had been taking an antilipidemic drug for more than six months at the start of the trial, four weeks of drug holidays (eight weeks in the case of probucol) were given. Patients who were administered with the antilipidemic drug for six months or less at the start of the trial were admitted in the trial with no drug holiday, and when the drug was HMG-CoA RI, its administration was continued while other drugs were changed to HMG-CoA RI.
In order to exclude cardiovascular events in the unstable period after the onset of myocardial infarction and cardiovascular events such as restenosis in the unstable period which is conceived to be caused by the angioplasty itself, the patients at or within six months after the acute myocardial infarction and patients at or within six months after the cardiovascular angioplasty were excluded from the trial subjects, and only patients who are beyond six months after such events and who are conceived to be in the stable period were included in the trial. In addition, patients who are inadequate for the examination of the action of preventing the onset of cardiovascular events for a long time which is the object of this trial, for example, patients of unstable angina pectoris, patients with history or complication of serious heart diseases (such as severe arrhythmia, heart failure, cardiomyopathy, valvular disease, and congenital heart disease), patients at or within six months from the onset of cerebrovascular disorder, and patients with complication of serious liver disease or kidney disease, as well as the patients whose participation was judged to be inappropriate by the attending physician were excluded from the trial.
as §2, §3
For five years from before the start of the trial to the end of the trial, the concentration of the serum lipid (T-Cho, HDL-Cho, and TG) was periodically measured, and LDL-Cho was calculated by the equation of T-Cho-HDL-Cho-(TG/5). […]

[4] = two-year administration after PTCA; cited from earlier work
[5] = oral, cited from earlier work
[6] = EPA-E group with HMG-CoA RI, five years
[7] = Cardiovascular angioplasty history: No
[8] = Cardiovascular angioplasty history: Yes
[9] = Myocardial Infarction history: No
[10] = Myocardial Infarction history: Yes

With `CC/C=C\C/C=C\C/C=C\C/C=C\C/C=C\CCCC(=O)OCC` [EPA-E, ethyl icosapentate] the “serum HDL-Cho concentration” value [1, 6] was “no significant change”, the “serum TG concentration” value [1, 6] was “decreased” and the “serum LDL-Cho concentration” value ([1]; EPA-E group with HMG-CoA RI, five years, LDL-Cho calculated) was “decreased”. The “serum T-Cho concentration” value ([1]; EPA-E group with HMG-CoA RI, observation period of five years) was “decreased”, the “decrease in the serum TG concentration, EPA-E group versus control group” value ([1]; five years) was “more significant” and the “serum T-Cho concentration reduced” value [2] was 3-6%. For the same compound, the “Odds ratio (incidence rate of the EPA-E group)/(incidence rate of the control group)” value ([3]; All Cases) was 0.808, the “Odds ratio (EPA-E group/control group)” value [3, 7] was 0.862 and the “Odds ratio (EPA-E group/control group)” value [3, 8] was 0.671. The “incidence rate of the cardiovascular events” value [3, 7] was “(2.10) %”, the “Cases with the cardiovascular events/all cases” value [3, 8] was 77/533 and the “incidence rate of the cardiovascular events” value [3, 8] was “(14.45) %”. For the same compound, the “incidence rate of the cardiovascular events” value [3, 9] was “(2.05) %”, the “Cases with the cardiovascular events/all cases” value [3, 10] was 82/548 and the “incidence rate of the cardiovascular events” value [3, 10] was “(14.96) %”. The “Odds ratio (EPA-E group/control group)” value [3, 9] was 0.811, the “Odds ratio (EPA-E group/control group)” value [3, 10] was 0.744 and the “reduction of the incidence rate of the cardiovascular events compared to the control group” value ([3]; all cases) was “about 19%”. The “decrease of the incidence rate of the cardiovascular events compared to the control group” value ([3]; patients with history of cardiovascular angioplasty) was “about 33%” and the “decrease of the incidence rate of the cardiovascular events compared to the control group” value ([3]; patients with history of myocardial infarction) was “about 26%”.

In the case of `CC[C@H](C)C(=O)O[C@H]1C[C@H](O)C=C2C=C[C@H](C)[C@H](CC[C@@H](O)C[C@@H](O)CC(=O)O)[C@H]21` [pravastatin sodium], the restenosis rate [4] is listed as “reduced the restenosis rate”, the “serum HDL-Cho concentration increased” value ([5]; average 4.9 years) is listed as 5% and the “serum LDL-Cho concentration decreased” value ([5]; average 4.9 years) is listed as 26%. The “serum TG decreased” value ([5]; average 4.9 years) was 12%, the “total incidence rate of nonfatal myocardial infarction and cardiovascular death decreased” value ([5]; average 4.9 years) was 31% and the “serum T-Cho concentration decreased” value ([5]; average period of 4.9 years, male hyperlipidemia patients with no history of myocardial infarction) was 20%.
